These results are taken from US6673823B2, “Use of peroxisome proliferator activated receptor (PPAR)-γ ligands as a treatment for pituitary tumors and associated conditions, such as Cushing's syndrome” (Cedars-Sinai Medical Center, priority 2002, dated 2004).

Data set [1] deals with mouse corticotroph tumor cells (AtT20). Put plainly: Western blot analysis of TZD-treated corticotroph cells. To be noted: 10^−5 M, vs. vehicle. The class given is cell-based. The protocol: Western Blot Analysis: AtT20 cells were seeded at about 1×10^6 per well and human pituitary cell cultures were seeded at about 0.5×10^6 per well in 6-well plates for 24 hours prior to treatment with TZD's. Cells were then washed with PBS, and protein samples prepared in RIPA buffer and resolved under reducing conditions on 12% SDS-polyacrylamide gels using standard methods (Elstner, E., et al., Ligands for peroxisome proliferator-activated receptor-γ and retinoic acid receptor inhibit growth and induce apoptosis of human breast cancer cells in vitro and in BNX mice. Proc. Natl. Acad. Sci. USA 95:8806-8811 [1998]). Resolved proteins were transferred to nitrocellulose membranes and probed with antibodies to Bc1-2 (1:500), Bax (1:1000), TRAIL (1:500), p53 (1:1000) (all from Santa-Cruz, Cailf.), p-Rb (Ser 795) (1:1000), cleaved and uncleaved caspase-3 (1:500) (Cell Signalling, Beverly, Mass.) overnight at 4° C. After washing, membranes were incubated with appropriate IgG- horseradish peroxidase conjugates, and immunoreactive protein bands were visualized with ECL (Amersham, Buckinghamshire, UK). Total protein was normalized by reprobing with anti-actin antibody (1:5000, Sigma, St. Louis, Mo.) or Ponceau S staining, and protein bands quantified by densitometry (Video Densitometer model 620, Bio-Rad).
(Immunoblotting shows a protein as a band on a membrane.)

The subject of data set [2] is human patients. As to conditions: withdrawn in March, 2000; cited from earlier work.
The test system of data set [3] is AtT20 cells. Put plainly: TUNEL apoptosis analysis. The class given is cell-based, mouse. As to conditions: CRH 50 nM alone, 24 hours. The protocol: Terminal Deoxynucleotidyltransferase-mediated dUTP Nick End Labeling (TUNEL). Apoptosis-induced nuclear DNA fragmentation was detected using the in situ cell death detection kit, TMR red (Roche Diagnostics, Indianapolis, IN) following the manufacturer's protocol. Briefly, 48 hours following treatment with thiazolidinedione compounds (TZDs), AtT20 cells were fixed in 4% paraformaldehyde, permeabilized with 0.1% sodium citrate/ 0.6% Tween 20 (pH 7.4) for 2 min at 4° C. prior to incubation in Tunel reaction mix (TMR red/dNTP mix, TdT, and labeling buffer) for 60 min at 37° C. Slides were washed (3×5 min) in PBS/ Triton/ BSA (0.3%) and visualized on an Olympus BH2 immunofluorescent microscope.

Data set [4] deals with POMC promoter (-706/+64 rat POMC-luc) in AtT20 cells. The data set is described as follows: POMC promoter luciferase reporter transfection. The class given is cell-based, mouse. As to conditions: CRH 50 nM, luciferase over vehicle control. An excerpt: Transfection with POMC promoter.
A general note: A reporter such as luciferase makes a cellular process visible.

On to `Cc1c(C)c2c(c(C)c1O)CCC(C)(COc1ccc(CC3SC(=O)NC3=O)cc1)O2` (racemic) [Troglitazone, (±)-5-[4[(6-Hydroxy-2,5,7,8-tetramethylchroman-2-yl)methoxy]-benzyl]-2,4-thiazolidinedione], for which, in data set [1], the “expression of pro-apoptotic protein p53” value was “increased expression”. In addition, the “reason for market withdrawal” value in data set [2] is listed as “reports of liver toxicity in humans”.
Consider “CRH: Corticotrophin releasing hormone, a potent corticotroph proliferative factor”, for which, in data set [3], the “% apoptosis (TUNEL)” value was found to be 4±0.5%. For the same compound, in data set [4], the “increase in POMC-transcription” value is on record as 1.6 fold.
